# In patent publication US20250171404A1, “PCNA INHIBITORS AND USES THEREOF” (CITY OF HOPE, priority 2022, published 2025):
# Legend:
# [1] = biological target: T1, PCNA (Homo sapiens, UniProt P12004); assay: Thermal denaturation (thermal shift) assay; assay type: binding; details: 9 μM PCNA; 10 or 30 μM compound; dose dependent
# T1 construct: made in house; host or cells: E. coli Rosetta 2 (DE3)
# Method: FIGS. 1A-1E. AOH1160 analog interactions with PCNA. FIG. 1A: Thermal shift assay: Normalized inverse derivative thermal denaturation plots of 9 μM apo-PCNA with DMSO control is depicted with a black dashed line and PCNA in the presence of 10 μM AOH1160LE is shown in light grey and 30 μM AOH1160LE in dark grey. ΔTm values are provided. FIG. 1B: As described in FIG. 1A, in the presence of 10 μM AOH1996 depicted in light grey and 30 μM AOH1996 depicted in dark grey. FIG. 1C: Four monomers (chains A-D) of PCNA are present in the asymmetric unit of the crystal. Chains A, B, and C form the homotrimer biological unit, while chain Dis orientated perpendicular to the plane of the ring, below the interface of chains B and C and it belongs to an adjacent ring. Inset: Three molecules of AOH1160LE bind in and adjacent to the PIP box cavity of each of the PCNA ring subunits. The omit map, gray mesh, is contoured to 1.56. Two PCNA monomer subunits from adjacent rings stack against each other, placing the PIP box and IDCLs of each subunit in opposing directions. FIG. 1D: The three AOH1160LE molecules are shown as stick figure representations. Two of the compounds, left and central, bind into the PIP box cavity at known PCNA-partner/compound interaction sites. […] The electrostatic surface maps are depicted with Poisson-Boltzmann electrostatic surface potentials shown in dark grey and light grey, corresponding to −10 to +10 kT/e respectively.
# Targeting the PIP box and APIM binding domain of PCNA. AOH1160, a small molecule PCNA ligand, targets the cancer-distinct L126-Y133 region of PCNA (Malkas et al., 2006) and is selectively toxic to cancer cells (Gu et al., 2018). […]
# Thermal denaturation assay for PCNA-AOH1996 interaction. […] Fluorescence intensity was measured within the excitation/emission ranges 470-505/540-700 nm.
# [2] = system: OVCAR8; assay: Cell growth IC50, screening of AOH1160 analogs; assay type: cell-based; details: Homo sapiens, OVCAR-8, read-out: IC50 values
# [3] = system: MDA-MB-468; assay: Cell growth IC50, screening of AOH1160 analogs; assay type: cell-based; details: Homo sapiens, MDA-MB-468, read-out: IC50 values
# [4] = system: HCT-116; assay: Cell growth IC50, screening of AOH1160 analogs; assay type: cell-based; details: Homo sapiens, HCT-116, read-out: IC50 values
# [5] = system: HTC-116; assay: Cell growth IC50, screening of AOH1160 analogs; assay type: cell-based; details: read-out: IC50 values
# [6] = system: RKO; assay: Cell growth IC50, screening of AOH1160 analogs; assay type: cell-based; details: Homo sapiens, read-out: IC50 values
# [7] = system: nonmalignant cells, including human PBMCs, small airway epithelial cells (hSEAC), and neural crest stem cells (7SM0032); assay: Toxicity to nonmalignant cells
# T1 sequence (P12004 whole entry): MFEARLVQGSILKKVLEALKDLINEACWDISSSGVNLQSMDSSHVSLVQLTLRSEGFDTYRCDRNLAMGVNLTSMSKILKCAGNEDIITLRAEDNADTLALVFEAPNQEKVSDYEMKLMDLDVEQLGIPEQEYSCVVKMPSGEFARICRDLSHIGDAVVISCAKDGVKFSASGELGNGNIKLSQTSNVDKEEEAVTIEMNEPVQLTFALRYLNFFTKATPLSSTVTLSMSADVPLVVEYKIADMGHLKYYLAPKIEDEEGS
smiles,measurement,setting,value
"COc1cccc(Oc2ccccc2NC(=O)CNC(=O)c2cccc3ccccc23)c1 [AOH1996, N-(2-((2-(3-methoxyphenoxy)phenyl)amino)-2-oxoethyl)-1-naphthamide]",shift of protein melting curves (ΔTm),[1],≤ 1.5 °C
same,IC50,[2],549 nM
same,IC50,[3],740 nM
same,IC50,[4],786 nM
same,IC50,[5],250 nM
same,IC50,[6],255 nM
same,difference in sensitivity between cancer and normal cells,[7],30 fold
same,concentration up to which not significantly toxic,"[7]; human PBMCs, hSEAC, 7SM0032",at least 10 μM
